Columns and labels:
[1] = tested on: Smn protein in SMA patient fibroblast cells (GM03813); assay: Smn protein assay in cultured cells (SMN HTRF); type: cell-based, human; settings: SMA patient fibroblast cells, 48 hours; for EC1.5x for Smn protein expression: 7-point concentration curve, SMN HTRF, concentration producing 1.5 times Smn protein vs DMSO vehicle control; for maximum fold (Fold) increase of Smn protein: 7-point concentration data, fold relative to vehicle control
Summary of the method: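 SMA patient fibroblasts (5,000/well, DMEM-10% FBS) treated 48 h at 37° C with 7-point, 3.16-fold compound series in triplicate; lysates read by SMN HTRF (665/620 nm ratio). Fold Smn increase over DMSO vehicle derived; EC1.5× is concentration giving 1.5-fold Smn, with maximum fold also reported.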

[2] = tested on: SMN2 minigene mRNA (SMN2-A minigene) in HEK293H cells; assay: SMN2 minigene mRNA splicing RT-qPCR assay in cultured cells; type: cell-based, human; settings: Homo sapiens, HEK293-H; concentration increasing full length SMN2 mRNA 1.5-fold relative to vehicle-treated cells; HEK293H cells with SMN2-A minigene, 24 hours, 7-point concentration data; read-out: EC1.5x for production of full length SMN2 mRNA
Summary of the method: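 HEK293H cells stably carrying SMN2-A minigene treated with compounds (7-point, 3.16-fold dilutions, duplicates) for 24 h at 37 °C. Full-length exon 7-containing minigene mRNA measured by multiplex RT-qPCR with GAPDH, normalized and expressed relative to vehicle (modified ΔΔCt); EC1.5× is concentration giving 1.5-fold increase.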

SMILES	melting point [°C]	EC1.5x for Smn protein expression [1]	maximum fold (Fold) increase of Smn protein [1]	EC (1.5-fold increase) [2] [µM]
Cn1ncc2cc(-c3cc(=O)n4cc(C5=CCNCC5)ncc4n3)ccc21 [Compound 505, 2-(1-methyl-1H-indazol-5-yl)-7-(1,2,3,6-tetrahydropyridin-4-yl)-4H-pyrazino[1,2-a]pyrimidin-4-one]	228 to 230	**** (an EC1.5x≤0.3 μM is indicated by four stars (****))	**** (a fold increase between >1.5 and ≤1.65 is indicated by four stars (****))	< 0.1
CN1CC=C(c2cn3c(=O)cc(-c4ccc5c(cnn5C)c4)nc3cn2)CC1 [Compound 506, 2-(1-methyl-1H-indazol-5-yl)-7-(1-methyl-1,2,3,6-tetrahydropyridin-4-yl)-4H-pyrazino[1,2-a]pyrimidin-4-one]	234 to 236	**** (an EC1.5x≤0.3 μM is indicated by four stars (****))	**** (a fold increase between >1.5 and ≤1.65 is indicated by four stars (****))	< 0.1
Cc1cn2nc(-c3cc(=O)n4cc(N5CCN[C@H](C)C5)cc(C)c4n3)cc2c(C)n1 [Compound 509, 2-(4,6-dimethylpyrazolo[1,5-a]pyrazin-2-yl)-9-methyl-7-[(3R)-3-methylpiperazin-1-yl]-4H-pyrido[1,2-a]pyrimidin-4-one]	213 to 222	*** (an EC1.5× between >0.3 μM and ≤1 μM is indicated by three stars (***))	**** (a fold increase between >1.5 and ≤1.65 is indicated by four stars (****))	< 0.1
Cc1cn2nc(-c3cc(=O)n4cc(N5CCN(C)[C@H](C)C5)cc(C)c4n3)cc2c(C)n1 [Compound 510, 7-[(3R)-3,4-dimethylpiperazin-1-yl]-2-(4,6-dimethylpyrazolo[1,5-a]pyrazin-2-yl)-9-methyl-4H-pyrido[1,2-a]pyrimidin-4-one]	244 to 253	**** (an EC1.5x≤0.3 μM is indicated by four stars (****))	***** (a fold increase >1.65 is indicated by five stars (*****))	< 0.1
CCN1CCN(c2cc(C)c3nc(-c4cc5c(C)nc(C)cn5n4)cc(=O)n3c2)C[C@H]1C [Compound 511, 2-(4,6-dimethylpyrazolo[1,5-a]pyrazin-2-yl)-7-[(3R)-4-ethyl-3-methylpiperazin-1-yl]-9-methyl-4H-pyrido[1,2-a]pyrimidin-4-one]	240 to 245	** (an EC1.5× between >1 μM and ≤3 μM is indicated by two stars (**))	**** (a fold increase between >1.5 and ≤1.65 is indicated by four stars (****))	< 0.1
CCN1CCC(c2ccc3nc(-c4cc5c(C)nc(C)cn5n4)cc(=O)n3n2)CC1 [Compound 514, 2-(4,6-dimethylpyrazolo[1,5-a]pyrazin-2-yl)-7-(1-ethylpiperidin-4-yl)-4H-pyrimido[1,2-b]pyridazin-4-one]	283 to 285	** (an EC1.5× between >1 μM and ≤3 μM is indicated by two stars (**))	***** (a fold increase >1.65 is indicated by five stars (*****))	0.1 to 0.3
Cc1cn2nc(-c3cc(=O)n4cc(N5CCC6NCCC6C5)ccc4n3)cc2c(C)n1 (centres unmarked) [Compound 515, 2-(4,6-dimethylpyrazolo[1,5-a]pyrazin-2-yl)-7-(octahydro-5H-pyrrolo[3,2-c]pyridin-5-yl)-4H-pyrido[1,2-a]pyrimidin-4-one]	198 to 200	**** (an EC1.5x≤0.3 μM is indicated by four stars (****))	***** (a fold increase >1.65 is indicated by five stars (*****))	< 0.1
CCN1CCC(c2ccc3nc(-c4ccc5nn(C)cc5c4)cc(=O)n3n2)CC1 [Compound 523, 7-(1-ethylpiperidin-4-yl)-2-(2-methyl-2H-indazol-5-yl)-4H-pyrimido[1,2-b]pyridazin-4-one]	253 to 255	**** (an EC1.5x≤0.3 μM is indicated by four stars (****))	***** (a fold increase >1.65 is indicated by five stars (*****))	< 0.1

Now from value to compound, other results behind:

melting point [°C]	SMILES	EC1.5x for Smn protein expression [1]	maximum fold (Fold) increase of Smn protein [1]	EC (1.5-fold increase) [2] [µM]
265 to 267	Cc1cn2nc(-c3cc(=O)n4nc(C5CCN(C)CC5)ccc4n3)cc2c(C)n1 [Compound 513, 2-(4,6-dimethylpyrazolo[1,5-a]pyrazin-2-yl)-7-(1-methylpiperidin-4-yl)-4H-pyrimido[1,2-b]pyridazin-4-one]	**** (an EC1.5x≤0.3 μM is indicated by four stars (****))	***** (a fold increase >1.65 is indicated by five stars (*****))	0.1 to 0.3
287 to 293	Cc1cn2cc(-c3cc(=O)n4cc(C5CCNCC5)ccc4n3)cc(Cl)c2n1 [Compound 516, 2-(8-chloro-2-methylimidazo[1,2-a]pyridin-6-yl)-7-(piperidin-4-yl)-4H-pyrido[1,2-a]pyrimidin-4-one]	**** (an EC1.5x≤0.3 μM is indicated by four stars (****))	**** (a fold increase between >1.5 and ≤1.65 is indicated by four stars (****))	< 0.1
292 to 296	Cc1cn2cc(-c3cc(=O)n4cc(C5CCN(C)CC5)ccc4n3)cc(Cl)c2n1 [Compound 517, 2-(8-chloro-2-methylimidazo[1,2-a]pyridin-6-yl)-7-(1-methylpiperidin-4-yl)-4H-pyrido[1,2-a]pyrimidin-4-one]	**** (an EC1.5x≤0.3 μM is indicated by four stars (****))	***** (a fold increase >1.65 is indicated by five stars (*****))	< 0.1
240 to 246	CCN1CCC(c2ccc3nc(-c4cc(Cl)c5nc(C)cn5c4)cc(=O)n3c2)CC1 [Compound 518, 2-(8-chloro-2-methylimidazo[1,2-a]pyridin-6-yl)-7-(1-ethylpiperidin-4-yl)-4H-pyrido[1,2-a]pyrimidin-4-one]	**** (an EC1.5x≤0.3 μM is indicated by four stars (****))	**** (a fold increase between >1.5 and ≤1.65 is indicated by four stars (****))	< 0.1
279 to 285	Cc1cn2cc(-c3cc(=O)n4cc(C5CCN(C(C)C)CC5)ccc4n3)cc(Cl)c2n1 [Compound 519, 2-(8-chloro-2-methylimidazo[1,2-a]pyridin-6-yl)-7-[1-(propan-2-yl)piperidin-4-yl]-4H-pyrido[1,2-a]pyrimidin-4-one]	**** (an EC1.5x≤0.3 μM is indicated by four stars (****))	***** (a fold increase >1.65 is indicated by five stars (*****))	< 0.1
260 to 262	CN1CCC(c2ccc3nc(-c4ccc5nn(C)cc5c4)cc(=O)n3n2)CC1 [Compound 522, 2-(2-methyl-2H-indazol-5-yl)-7-(1-methylpiperidin-4-yl)-4H-pyrimido[1,2-b]pyridazin-4-one]	*** (an EC1.5× between >0.3 μM and ≤1 μM is indicated by three stars (***))	***** (a fold increase >1.65 is indicated by five stars (*****))	< 0.1
289 to 291	Cc1cn2cc(-c3cc(=O)n4nc(C5CCN(C)CC5)ccc4n3)cc(Cl)c2n1 [Compound 524, 2-(8-chloro-2-methylimidazo[1,2-a]pyridin-6-yl)-7-(1-methylpiperidin-4-yl)-4H-pyrimido[1,2-b]pyridazin-4-one]	*** (an EC1.5× between >0.3 μM and ≤1 μM is indicated by three stars (***))	***** (a fold increase >1.65 is indicated by five stars (*****))	0.1 to 0.3
284 to 286	CCN1CCC(c2ccc3nc(-c4cc(Cl)c5nc(C)cn5c4)cc(=O)n3n2)CC1 [Compound 525, 2-(8-chloro-2-methylimidazo[1,2-a]pyridin-6-yl)-7-(1-ethylpiperidin-4-yl)-4H-pyrimido[1,2-b]pyridazin-4-one]	*** (an EC1.5× between >0.3 μM and ≤1 μM is indicated by three stars (***))	***** (a fold increase >1.65 is indicated by five stars (*****))	0.1 to 0.3
255 to 257	Cc1cn2cc(-c3cc(=O)n4nc(C5CCN(CCO)CC5)ccc4n3)cc(Cl)c2n1 [Compound 526, 2-(8-chloro-2-methylimidazo[1,2-a]pyridin-6-yl)-7-[1-(2-hydroxyethyl)piperidin-4-yl]-4H-pyrimido[1,2-b]pyridazin-4-one]	** (an EC1.5× between >1 μM and ≤3 μM is indicated by two stars (**))	***** (a fold increase >1.65 is indicated by five stars (*****))	0.3 to 1

Source: US11753407B2, “Compounds for treating spinal muscular atrophy” (PTC Therapeutics, Inc., priority 2012, dated 2023)
